According to US12441730B2, “PRMT5 inhibitors” (Merck Sharp & Dohme LLC, priority 2019, dated 2025):
Like-named read-outs stand apart in the source and are kept apart here.

Tests used:
[1] = molecular target: T1, Full-length (FL)-PRMT5-MEP50 enzyme complex (Homo sapiens, UniProt O14744); assay: PRMT5-MEP50 Enzyme Methylation Assay (Version A); type: biochemical
T1 construct: Full-length (FL)-PRMT5-MEP50 enzyme complex (recombinant proteins from baculovirus-transfected Sf21 cells: FL-PRMT5; MW=73837 kDa and FL-MEP50; MW=38614); made in house; host or cells: baculovirus-transfected Sf21 cells
T1 sequence (O14744 whole entry): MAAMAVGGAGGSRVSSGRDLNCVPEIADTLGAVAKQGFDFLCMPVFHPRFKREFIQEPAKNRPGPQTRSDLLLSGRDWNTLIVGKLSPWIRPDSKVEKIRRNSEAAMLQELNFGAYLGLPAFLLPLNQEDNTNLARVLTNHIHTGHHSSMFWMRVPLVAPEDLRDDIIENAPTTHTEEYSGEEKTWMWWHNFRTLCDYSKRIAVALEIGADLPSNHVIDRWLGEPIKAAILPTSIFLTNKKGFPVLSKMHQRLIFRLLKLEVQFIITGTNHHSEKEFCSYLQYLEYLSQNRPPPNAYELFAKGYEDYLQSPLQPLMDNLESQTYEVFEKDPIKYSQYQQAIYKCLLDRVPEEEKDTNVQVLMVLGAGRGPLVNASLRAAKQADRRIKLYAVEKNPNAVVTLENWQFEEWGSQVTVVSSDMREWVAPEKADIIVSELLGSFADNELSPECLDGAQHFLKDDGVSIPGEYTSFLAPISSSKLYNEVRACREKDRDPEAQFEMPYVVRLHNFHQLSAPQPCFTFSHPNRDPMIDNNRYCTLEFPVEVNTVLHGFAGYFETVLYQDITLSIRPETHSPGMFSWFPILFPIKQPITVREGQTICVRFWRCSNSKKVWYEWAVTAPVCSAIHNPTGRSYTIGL
T1 sequence (Q9BQA1 whole entry partner): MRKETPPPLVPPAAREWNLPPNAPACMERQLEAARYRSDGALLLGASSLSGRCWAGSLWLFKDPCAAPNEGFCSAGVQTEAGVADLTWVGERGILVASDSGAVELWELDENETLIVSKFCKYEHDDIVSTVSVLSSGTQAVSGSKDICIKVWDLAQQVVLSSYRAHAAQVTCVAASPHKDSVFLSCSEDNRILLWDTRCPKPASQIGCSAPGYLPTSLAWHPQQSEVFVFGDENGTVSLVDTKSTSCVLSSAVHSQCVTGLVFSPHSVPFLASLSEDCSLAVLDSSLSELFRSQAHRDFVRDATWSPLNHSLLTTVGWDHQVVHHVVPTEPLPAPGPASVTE
Protocol: PRMT5-MEP50 Enzyme Methylation Assay (Version A)
PRMT5-MEP50 biochemical assay is a direct measurement of the methylation activity of the enzyme complex on a short peptide substrate derived from the N-terminus of H4 histone. Methylation experiment was performed with recombinant PRMT5-MEP50 protein complex. The assessment of inhibitory effect of small molecules was measured by the effectiveness of the compounds to inhibit this reaction (EC50).
In this assay, the potency (EC50) of each compound was determined from a twenty-point (1:2 serial dilution; top compound concentration of 100000 nM) titration curve using the following outlined procedure. To each well of a white ProxiPlus 384 well-plate, 100 nL of compound (1% DMSO in final assay volume of 10 μL) was dispensed, followed by the addition of 8 μL of 1× assay buffer (50 mM Bicine pH 8.0, 1 mM DTT, 0.004% Tween20, 0.01% BSA) containing 1.25 nM of Full-length (FL)-PRMT5-MEP50 enzyme complex (recombinant proteins from baculovirus-transfected Sf21 cells: FL-PRMT5; MW=[…] and FL-MEP50; MW=38614) and 1 μL of 150 μM S-(5′-Adenosyl)-L-Methionine Chloride (SAM). A plate were sealed and placed in a 37° C. humidified chamber for a 60 minutes pre-incubation with compound. Subsequently, each reaction was initiated by the addition of 1 μL 1× assay buffer containing 750 nM biotinylated H4R3(Me1) peptide. The final reaction in each well of 10 μL consists of 1.0 nM PRMT5-MEP50, 75 nM biotinylated-peptide, and 15 μM SAM. Methylation reactions were allowed to proceed for 150 minutes in a sealed plate at 37° C. Reactions were immediately quenched by the addition of 1 μL of 5% formic acid. A plate was then frozen and shipped to SAMDI™ Tech Inc. to determine the percent conversion from H4R3(Me1) to H4R3(Me2). Dose-response curves were generated by plotting percent effect (% product conversion; Y-axis) vs. Log 10 compound concentrations (X-axis). EC50 values were determined by non-linear regression according to models for either sigmoidal (4 parameters) or biphasic (7 parameters) dose-response curves.

[2] = system: symmetric dimethylation of arginine (SDMA) of PRMT5 substrates in MCF-7 cells; assay: PRMT5 Cell Target Engagement (TE) Assay; type: cell-based; conditions: 3 days treatment, SDMA high content imaging
Description: PRMT5 Cell Target Engagement (TE) Assay
The PRMT5 TE assay is a biomarker assay for identifying compounds that inhibit symmetric dimethylation of arginine (SDMA) of PRMT5 substrates. The following substrates have been reported for PRMT5: histone H2A and H4 R3, Histone H3 R2, Histone H3 R8, spliceosome Sm proteins, ribosomal protein RPS10, p53, FEN1, nucleoplasmin, nucleolin, EGFR and EBNA. The assay focuses on detecting symmetrically dimethylated nuclear proteins using high content imaging technology. Detection of the expression of symmetrically dimethylated nuclear proteins is through a mixture of primary rabbit monoclonal antibodies to SDMA (CST 13222), which in turn recognized by an Alexafluor 488 dye-conjugated anti-rabbit IgG secondary antibody. The IN Cell Analyzer 2200 or Opera-Phenix measures nuclear Alexafluor 488 fluorescent dye intensity that is directly related to the level of expression of symmetrically dimethylated nuclear proteins at the single cell level. Nuclear AF488 dye intensities are compared to the mean value for DMSO treated cells (MIN) to report percent of inhibition for each compound-treated well.
In this assay, the cell potency (EC50) of each compound was determined from a ten point (1:3 serial dilution; top compound concentration of 10000 nM) titration curve using the following outlined procedure. Each well of a BD falcon collagen coated black/clear bottom 384-well plate was seeded with 4000 MCF-7 cells in 30 μl media and allowed to attach for 5 h. Media is ATCC-formulated Eagle's Minimum Essential Medium, Catalog No. 30-2003. To make the complete growth medium, the following components were added to the base medium: 0.01 mg/mL human recombinant insulin; fetal bovine serum to a final concentration of 10%. Additional 30 μl of media containing 2× compounds were added to each well. Cells were treated for 3 days in 37° C. CO2 incubator. On day 3, cells were fixed with Cytofix, permeabilized with 0.4% Triton-X-100/Cytofix, and washed with D-PBS without Ca/Mg. Cells were blocked with Licor Odessey blocking reagent for 1 h at room temperature, followed by incubation with anti-SDMA (1:1000) antibody at 4° C. overnight. 1° antibody was removed, followed by three washings with DPBS without Ca/Mg and 0.05% Tween20. Hoechst (5 μg/mL), Cell Mask deep stain (1:2000) and Alexa488-conjugated goat anti-rabbit IgG (2 μg/mL) was added for 1 h at room temperature. A final washing step (three washes) was performed before sealing plate for imaging on In Cell Analyzer 2200 or Opera-Phenix. Images from analyzer were uploaded to Columbus (at WP or BOS) for image analysis. IC50 values were determined by 4 parameters robust fit of percent fluorescence units vs. (Log10) compound concentrations.

[3] = single EC50 = 4 parameter single site sigmoidal fit, EC50 1 = first value of 7 parameter biphasic fit, read-out: Enzyme Methylation Assay Version A (EC50 or EC50 1)
[4] = second value of 7 parameter biphasic fit, read-out: Enzyme Methylation Assay Version A (EC50 2)

For `CO[C@H](C)c1cc(N2CCn3nccc32)cn2cc(C(=O)N3CC[C@]4(Cc5ccccc5CN4)[C@H](O)C3)nc12` [Example 232, {6-(2,3-dihydro-1H-imidazo[1,2-b]pyrazol-1-yl)-8-[(1R)-1-methoxyethyl]imidazo[1,2-a]pyridin-2-yl}[(3R,3′R)-3′-hydroxy-1,4-dihydro-1′H,2H-spiro[isoquinoline-3,4′-piperidin]-1′-yl]methanone], the EC50 [1, 3] was 5 nM and the EC50 ([2]; Homo sapiens, MCF7, 72 h) was 67.3 nM.

`Cc1ccnc2nc(C(=O)N3CC[C@]4(Cc5ccccc5CN4)[C@H](O)C3)nn12` [Example 193, [(3R,3′R)-3′-hydroxy-1,4-dihydro-1′H,2H-spiro[isoquinoline-3,4′-piperidin]-1′-yl](7-methyl[1,2,d]triazolo[1,5-a]pyrimidin-2-yl)methanone] was tested, and the EC50 [1, 3] was 27000 nM and the EC50 ([2]; Homo sapiens, MCF7, 72 h) was 9610 nM.

`COCC1CC(C)Cn2cc(C(=O)N3CC[C@]4(Cc5ccccc5CN4)[C@H](O)C3)nc21` (single isomer, unassigned) [Example 158] showed an EC50 [1, 4] of 29800 nM, an EC50 [1, 3] of 71.6 nM and an EC50 [2] of 1700 nM.

In the case of `N#CC1(COc2nc(Br)cn3cc(C(=O)N4CC[C@]5(Cc6ccccc6CN5)[C@H](O)C4)nc23)CC1` [Example 21, 1-(((6-bromo-2-((3R,3’R)-3′-hydroxy-1,4-dihydro-2H-spiro[isoquinoline-3,4′-piperidine]-l′-carbonyl)imidazo[1,2-a]pyrazin-8-yl)oxy)methyl)cyclopropane-1-carbonitrile], the EC50 [1, 3] is reported as 0.191 nM and the EC50 ([2]; Homo sapiens, MCF7, 72 h) is reported as 2.13 nM.

Compound `Cc1ccc(C(=O)N2CC[C@]3(Cc4ccccc4CN3)[C@H](O)C2)c(-n2nccn2)n1` [Example 186, ((3R,3′R)-3′-hydroxy-1,4-dihydro-2H-spiro[isoquinoline-3,4′-piperidin]-1′-yl)(6-methyl-2-(2H-1,2,3-triazol-2-yl)pyridin-3-yl)methanone] has an EC50 [1, 4] of 501 nM, an EC50 [1, 3] of 0.241 nM and an EC50 ([2]; Homo sapiens, MCF7, 72 h) of 71.2 nM.

Work on `COC(C)c1cc(Br)cn2cc(C(=O)N3CC[C@]4(Cc5ccc(Cl)cc5CN4)[C@H](O)C3)nc12` (single isomer, unassigned) [Example 226] yielded an EC50 [1, 3] of 1.4 nM and an EC50 ([2]; Homo sapiens, MCF7, 72 h) of 5.04 nM.

`CO[C@H](C)c1cc(N2Cc3cnn(C)c3C2)cn2cc(C(=O)N3CC[C@]4(Cc5ccccc5CN4)[C@H](O)C3)nc12` [Example 231, [(3R,3′R)-3′-hydroxy-1,4-dihydro-1′H,2H-spiro[isoquinoline-3,4′-piperidin]-1′-yl]{8-[(1R)-1-methoxyethyl]-6-(1-methyl-4,6-dihydropyrrolo[3,4-c]pyrazol-5(1H)-yl)imidazo[1,2-a]pyridin-2-yl}methanone] gave an EC50 [1, 3] of 11.3 nM and an EC50 ([2]; Homo sapiens, MCF7, 72 h) of 66.4 nM.

Compound `CNc1nc(C)ccc1C(=O)N1CC[C@]2(Cc3ccccc3CN2)[C@H](O)C1` [Example 198, [(3R,3′R)-3′-hydroxy-1,4-dihydro-1′H,2H-spiro[isoquinoline-3,4′-piperidin]-1′-yl][6-methyl-2-(methylamino)-3-pyridinyl]methanone] has an EC50 [1, 4] of 16000 nM, an EC50 [1, 3] of 19.3 nM and an EC50 ([2]; Homo sapiens, MCF7, 72 h) of 1070 nM.

With `Cc1cc(-c2onc(C)c2C(=O)N2CC[C@]3(Cc4ccccc4CN3)[C@H](O)C2)no1` [Example 183, (3′,5-dimethyl-[3,5′-biisoxazol]-4′-yl)((3R,3′R)-3′-hydroxy-1,4-dihydro-2H-spiro[isoquinoline-3,4′-piperidin]-1′-yl)methanone] the EC50 [1, 4] was 7940 nM, the EC50 [1, 3] was 4.87 nM and the EC50 ([2]; Homo sapiens, MCF7, 72 h) was 297 nM.

`O=C(c1cc2ncc(C(F)(F)F)cn2n1)N1CC[C@]2(Cc3ccccc3CN2)[C@H](O)C1` [Example 73, [(3R,3′R)-3′-hydroxy-1,4-dihydro-1′H,2H-spiro[isoquinoline-3,4′-piperidin]-1′-yl][6-(trifluoromethyl)pyrazolo[1,5-a]pyrimidin-2-yl]methanone] was tested, and the EC50 [1, 4] was 344 nM, the EC50 [1, 3] was 4.43 nM and the EC50 ([2]; Homo sapiens, MCF7, 72 h) was 339 nM.

`O=C(c1cn2cc(Br)c(O)cc2n1)N1CC[C@]2(Cc3ccccc3CN2)[C@H](O)C1` [Example 130, (6-bromo-7-hydroxy imidazo[1,2-a]pyridin-2-yl)[(3R,3′R)-3′-hydroxy-1,4-dihydro-1′H,2H-spiro[isoquinoline-3,4′-piperidin]-1′-yl]methanone] showed an EC50 [1, 4] of 19700 nM, an EC50 [1, 3] of 21.4 nM and an EC50 ([2]; Homo sapiens, MCF7, 72 h) of 9600 nM.

In the case of `COC(C)c1cc(C(F)F)cn2cc(C(=O)N3CC[C@]4(Cc5ccccc5CN4)[C@H](O)C3)nc12` (single isomer, unassigned) [Example 81], the EC50 [1, 3] is reported as 3.81 nM and the EC50 [2] is reported as 25 nM.

With `Cc1nn(C)c2ncc(C(=O)N3CC[C@]4(Cc5ccccc5CN4)[C@H](O)C3)c(Cl)c12` [Example 180, (4-chloro-1,3-dimethyl-1H-pyrazolo[3,4-b]pyridin-5-yl)((3R,3′R)-3′-hydroxy-1,4-dihydro-2H-spiro[isoquinoline-3,4′-piperidin]-1′-yl)methanone] the EC50 [1, 4] was 52500 nM, the EC50 [1, 3] was 51.3 nM and the EC50 ([2]; Homo sapiens, MCF7, 72 h) was 1320 nM.

`CN1CC(C2CC2)Cn2cc(C(=O)N3CC[C@]4(Cc5ccccc5CN4)[C@H](O)C3)nc21` (single isomer, unassigned) [Example 142] showed an EC50 [1, 4] of 1860 nM, an EC50 [1, 3] of 29.5 nM and an EC50 [2] of 620 nM.

For `CCC1Oc2ccc(C(=O)N3CC[C@]4(Cc5ccccc5CN4)[C@H](O)C3)cc2NC1=O` (single isomer, unassigned) [Example 104, (2R or 2S)-2-ethyl-6-((3R,3′R)-3′-hydroxy-1,4-dihydro-2H-spiro[isoquinoline-3,4′-piperidine]-1′-carbonyl)-2H-benzo[b][1,4]oxazin-3(4H)-one], the EC50 [1, 4] was 1410 nM, the EC50 [1, 3] was 1.44 nM and the EC50 [2] was 83.1 nM.

`CO[C@H](C)c1cc(CN2CCCC2)cn2cc(C(=O)N3CC[C@]4(Cc5ccccc5CN4)[C@H](O)C3)nc12` [Example 247, [(3R,3′R)-3′-hydroxy-1,4-dihydro-1′H,2H-spiro[isoquinoline-3,4′-piperidin]-1′-yl]{8-[(1R)-1-methoxyethyl]-6-(1-pyrrolidinylmethyl)imidazo[1,2-a]pyridin-2-yl}methanone] was tested, and the EC50 [1, 4] was 646 nM, the EC50 [1, 3] was 0.661 nM and the EC50 ([2]; Homo sapiens, MCF7, 72 h) was 75.3 nM.

For `COC(C)c1cc(C2CC2)cn2cc(C(=O)N3CC[C@]4(Cc5ccccc5CN4)[C@H](O)C3)nc12` (stereo partly drawn) [Example 132, [6-cyclopropyl-8-(1-methoxyethyl)imidazo[1,2-a]pyridin-2-yl][(3R,3′R)-3′-hydroxy-1,4-dihydro-1′H,2H-spiro[isoquinoline-3,4′-piperidin]-1′-yl]methanone], the EC50 [1, 4] was 123 nM, the EC50 [1, 3] was 0.244 nM and the EC50 ([2]; Homo sapiens, MCF7, 72 h) was 6.61 nM.
